# Values joined by “and” are separate entries in the source; they are usually repeats but may differ in a detail not shown here. Equal entries are not always repeated.
# Key:
# Y88F-hDAT [1] = target: T1, Y88F-hDAT (Homo sapiens, UniProt Q01959, Y88F); format: cell-based
# K92M-hDAT [2] = target: T2, K92M-hDAT (Homo sapiens, UniProt Q01959, K92M); format: cell-based
# Y470F-hDAT [3] = target: T3, Y470F-hDAT (Homo sapiens, UniProt Q01959, Y470F); format: cell-based
# Y470A-hDAT [4] = target: T4, Y470A-hDAT (Homo sapiens, UniProt Q01959, Y470A); format: cell-based
# T4 sequence (Q01959 whole entry Y470A): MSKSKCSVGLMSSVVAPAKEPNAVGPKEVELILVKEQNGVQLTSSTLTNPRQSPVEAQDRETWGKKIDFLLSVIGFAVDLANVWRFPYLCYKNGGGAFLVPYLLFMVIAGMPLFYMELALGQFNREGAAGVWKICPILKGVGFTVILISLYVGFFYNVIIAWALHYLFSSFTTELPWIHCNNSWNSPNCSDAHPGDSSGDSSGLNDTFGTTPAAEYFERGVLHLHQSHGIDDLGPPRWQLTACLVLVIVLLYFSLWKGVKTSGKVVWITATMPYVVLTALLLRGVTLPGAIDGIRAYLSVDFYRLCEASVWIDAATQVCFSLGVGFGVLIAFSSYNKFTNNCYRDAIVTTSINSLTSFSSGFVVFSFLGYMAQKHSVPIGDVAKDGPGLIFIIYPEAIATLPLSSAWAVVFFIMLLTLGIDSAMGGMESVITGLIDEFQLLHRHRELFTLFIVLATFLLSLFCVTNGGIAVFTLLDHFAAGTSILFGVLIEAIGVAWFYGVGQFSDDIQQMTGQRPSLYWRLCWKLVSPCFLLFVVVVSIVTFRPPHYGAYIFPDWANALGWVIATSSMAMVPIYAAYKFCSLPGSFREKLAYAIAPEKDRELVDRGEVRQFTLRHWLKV
# Y470F-hDAT [5] = target: T3, Y470F-hDAT; experiment: Basal substrate efflux assay, CHO cells with Y470F-hDAT; format: cell-based
# Y470A-hDAT [6] = target: T4, Y470A-hDAT; experiment: Basal substrate efflux assay, CHO cells with Y470A-hDAT; format: cell-based
# Y470H-hDAT = Y470H-hDAT (Homo sapiens, UniProt Q01959, Y470H); experiment: Basal substrate efflux assay, CHO cells with Y470H-hDAT; format: cell-based
# Chain of Y470H-hDAT (Q01959 whole entry Y470H): as the sequence (Q01959 whole entry Y470A) above, with A470H counted along it
# Y88F-hDAT [7] = target: T1, Y88F-hDAT; experiment: Basal substrate efflux assay, CHO cells with Y88F-hDAT; format: cell-based
# K92M-hDAT [8] = target: T2, K92M-hDAT; experiment: Basal substrate efflux assay, CHO cells with K92M-hDAT; format: cell-based
# WT hDAT [9] = target: T5, WT hDAT (Homo sapiens, UniProt Q01959); experiment: Basal substrate efflux assay, CHO cells with WT hDAT; format: cell-based; conditions: preloading [3H]MPP+ 5 nM, 30 min
# T5 sequence (Q01959 whole entry): as the sequence (Q01959 whole entry Y470A) above, with A470Y counted along it
# WT hDAT [10] = target: T5, WT hDAT; format: cell-based; conditions: ZnCl2 10 µM, CHO cells
# WT hDAT [11] = target: T5, WT hDAT; experiment: [3H]WIN 35,428 binding assay, WT hDAT; conditions: ZnCl2 10 µM, CHO cells
# Y88F-hDAT [12] = target: T1, Y88F-hDAT; experiment: [3H]WIN 35,428 binding assay, Y88F-hDAT; conditions: ZnCl2 10 µM, CHO cells
# K92M-hDAT [13] = target: T2, K92M-hDAT; experiment: [3H]WIN 35,428 binding assay, K92M-hDAT; conditions: ZnCl2 10 µM, CHO cells
# Y470F-hDAT [14] = target: T3, Y470F-hDAT; experiment: [3H]WIN 35,428 binding assay, Y470F-hDAT; conditions: ZnCl2 10 µM, CHO cells
# Y470A-hDAT [15] = target: T4, Y470A-hDAT; experiment: [3H]WIN 35,428 binding assay, Y470A-hDAT; conditions: ZnCl2 10 µM, CHO cells
# [16] = transfected PC12 cells (Fig. 4 legend: CHO), room temperature, 8 min
# [17] = preloading 0.05 µM [3H]DA, 20 min, CHO cells
# [18] = preloading [3H]MPP+ 5 nM, 30 min, CHO cells
# T3 sequence (Q01959 whole entry Y470F): as the sequence (Q01959 whole entry Y470A) above, with A470F counted along it
# T1 sequence (Q01959 whole entry Y88F): as the sequence (Q01959 whole entry Y470A) above, with Y88F, A470Y counted along it
# T2 sequence (Q01959 whole entry K92M): as the sequence (Q01959 whole entry Y470A) above, with K92M, A470Y counted along it
compound,measurement,setting,value
"NCCc1ccc(O)c(O)c1 [DA, dopamine]",Vmax of [3H]DA uptake,Y88F-hDAT [1]; [16],14.8 ± 3.7 pmol/min/10^5 cells
same,Vmax of [3H]DA uptake,K92M-hDAT [2]; [16],4.5 ± 1.7 pmol/min/10^5 cells
same,Km of [3H]DA uptake compared to WT hDAT,Y470F-hDAT [3]; transfected PC12 cells,did not alter
same,Vmax of [3H]DA uptake compared to WT hDAT,Y470F-hDAT [3]; transfected PC12 cells,did not alter
same,Vmax of [3H]DA uptake,Y470A-hDAT [4]; transfected PC12 cells,1.2 ± 0.2 pmol/min/10^5 cells
same,basal DA efflux compared to WT hDAT,Y470F-hDAT [5],no effect
same,total [3H]DA in the cells at the start of the efflux experiment,Y470F-hDAT [5]; [17],20908 ± 4209 dpm
same,basal fractional [3H]DA efflux compared to WT hDAT,Y470A-hDAT [6]; at 1 and 10 min,elevated
same,total [3H]DA in the cells at the start of the efflux experiment,Y470A-hDAT [6]; [17],1158 ± 123 dpm
same,basal fractional [3H]DA efflux compared to WT hDAT,"Y470H-hDAT; at 1, 10, 20 min",elevated
same,total [3H]DA in the cells at the start of the efflux experiment,Y470H-hDAT; [17],2488 ± 150 dpm
same,total [3H]DA in the cells at the start of the efflux experiment,Y88F-hDAT [7]; [17],41805 ± 6887 dpm
same,basal fractional [3H]DA efflux compared to WT hDAT,K92M-hDAT [8]; at 1 and 10 min,elevated
same,total [3H]DA in the cells at the start of the efflux experiment,K92M-hDAT [8]; [17],9655 ± 2160 dpm
"C[n+]1ccc(-c2ccccc2)cc1 [MPP^+, 1-methyl-4-phenylpyridinium]",total [3H]MPP+ in the cells at the start of the efflux experiment,WT hDAT [9],12120 ± 397 dpm and 15516 ± 920 dpm
same,basal MPP+ efflux compared to WT hDAT,Y470F-hDAT [5],no effect
same,total [3H]MPP+ in the cells at the start of the efflux experiment,Y470F-hDAT [5]; [18],7399 ± 359 dpm
same,basal fractional [3H]MPP+ efflux compared to WT hDAT,Y470A-hDAT [6]; at all time points,elevated
same,total [3H]MPP+ in the cells at the start of the efflux experiment,Y470A-hDAT [6]; [18],460 ± 46 dpm
same,total [3H]MPP+ in the cells at the start of the efflux experiment,Y470H-hDAT; [18],602 ± 28 dpm
same,basal fractional [3H]MPP+ efflux compared to WT hDAT,Y88F-hDAT [7]; at all time points,did not alter
same,total [3H]MPP+ in the cells at the start of the efflux experiment,Y88F-hDAT [7]; [18],5695 ± 450 dpm
same,basal fractional [3H]MPP+ efflux compared to WT hDAT,K92M-hDAT [8]; at all time points,did not alter
same,total [3H]MPP+ in the cells at the start of the efflux experiment,K92M-hDAT [8]; [18],967 ± 121 dpm
"[Cl-].[Cl-].[Zn+2] [Zn^2+, ZnCl2]",decrease of [3H]DA uptake by Zn2+ relative to control,WT hDAT [10],47% and 48%
same,decrease of [3H]DA uptake by Zn2+ relative to control,"Y88F-hDAT [1]; ZnCl2 10 µM, CHO cells",73%
same,decrease of [3H]DA uptake by Zn2+ relative to control,"K92M-hDAT [2]; ZnCl2 10 µM, CHO cells",81%
same,decrease of [3H]DA uptake by Zn2+ relative to control,"Y470F-hDAT [3]; ZnCl2 10 µM, CHO cells",49%
same,decrease of [3H]DA uptake by Zn2+ relative to control,"Y470A-hDAT [4]; ZnCl2 10 µM, CHO cells",72%
same,"increase of [3H]WIN 35,428 binding by Zn2+ relative to control",WT hDAT [11],48% and 54%
same,"effect of Zn2+ on [3H]WIN 35,428 binding",Y88F-hDAT [12],did not significantly alter
same,"effect of Zn2+ on [3H]WIN 35,428 binding",K92M-hDAT [13],did not significantly alter
same,"effect of Zn2+ on [3H]WIN 35,428 binding",Y470F-hDAT [14],but not in Y470F-hDAT and Y470A-hDAT
same,"effect of Zn2+ on [3H]WIN 35,428 binding",Y470A-hDAT [15],but not in Y470F-hDAT and Y470A-hDAT
